Test results published in the kinase profiling compilation of Christmann-Franck et al. (2016).

Columns and labels:
Experiment in all cases: radiometric filter-binding kinase assay, Kinase HotSpot
Settings in all cases: compound 0.5 µM; ATP 10 µM
ACVR1 (human) = ACVR1 (human) (UniProt Q04771)
ACVR1B (human) = ACVR1B (human) (UniProt P36896)
ADRBK1 (human) = ADRBK1 (human) (UniProt P25098)
AURKC (human) = AURKC (human) (UniProt Q9UQB9)
BMX (human) = BMX (human) (UniProt P51813)
CAMK1 (human) = CAMK1 (human) (UniProt Q14012)
CDK1 CCNB1 (human) = CDK1 CCNB1 (human) (UniProt P06493+P14635)
CSNK2A2 (human) = CSNK2A2 (human) (UniProt P19784)
DAPK1 (human) = DAPK1 (human) (UniProt P53355)
DDR2 (human) = DDR2 (human) (UniProt Q16832)
DYRK2 (human) = DYRK2 (human) (UniProt Q92630)
EPHA5 (human) = EPHA5 (human) (UniProt P54756)
EPHA7 (human) = EPHA7 (human) (UniProt Q15375)
FES (human) = FES (human) (UniProt P07332)
FLT1 (human) = FLT1 (human) (UniProt P17948)
FLT3 (human) = FLT3 (human) (UniProt P36888)
FYN (human) = FYN (human) (UniProt P06241)
GSK3A (human) = GSK3A (human) (UniProt P49840)
GSK3B (human) = GSK3B (human) (UniProt P49841)
HIPK4 (human) = HIPK4 (human) (UniProt Q8NE63)
IKBKB (human) = IKBKB (human) (UniProt O14920)
IKBKE (human) = IKBKE (human) (UniProt Q14164)
LRRK2 (human) = LRRK2 (human) (UniProt Q5S007)
MAP3K10 (human) = MAP3K10 (human) (UniProt Q02779)
MAP3K3 (human) = MAP3K3 (human) (UniProt Q99759)
MAPKAPK2 (human) = MAPKAPK2 (human) (UniProt P49137)
MST4 (human) = MST4 (human) (UniProt Q9P289)
MYLK2 (human) = MYLK2 (human) (UniProt Q9H1R3)
PAK4 (human) = PAK4 (human) (UniProt O96013)
PHKG1 (human) = PHKG1 (human) (UniProt Q16816)
PLK3 (human) = PLK3 (human) (UniProt Q9H4B4)
PRKACG (human) = PRKACG (human) (UniProt P22612)
PRKCB1 (human) = PRKCB1 (human) (UniProt P05771)
ROCK1 (human) = ROCK1 (human) (UniProt Q13464)
STK16 (human) = STK16 (human) (UniProt O75716)
STK33 (human) = STK33 (human) (UniProt Q9BYT3)
ULK3 (human) = ULK3 (human) (UniProt Q6PHR2)
YES1 (human) = YES1 (human) (UniProt P07947)
ZAP70 (human) = ZAP70 (human) (UniProt P43403)
PTK6 (human) = PTK6 (human) (UniProt Q13882)

ACVR1 (human), sequence (Q04771 whole entry, looked up): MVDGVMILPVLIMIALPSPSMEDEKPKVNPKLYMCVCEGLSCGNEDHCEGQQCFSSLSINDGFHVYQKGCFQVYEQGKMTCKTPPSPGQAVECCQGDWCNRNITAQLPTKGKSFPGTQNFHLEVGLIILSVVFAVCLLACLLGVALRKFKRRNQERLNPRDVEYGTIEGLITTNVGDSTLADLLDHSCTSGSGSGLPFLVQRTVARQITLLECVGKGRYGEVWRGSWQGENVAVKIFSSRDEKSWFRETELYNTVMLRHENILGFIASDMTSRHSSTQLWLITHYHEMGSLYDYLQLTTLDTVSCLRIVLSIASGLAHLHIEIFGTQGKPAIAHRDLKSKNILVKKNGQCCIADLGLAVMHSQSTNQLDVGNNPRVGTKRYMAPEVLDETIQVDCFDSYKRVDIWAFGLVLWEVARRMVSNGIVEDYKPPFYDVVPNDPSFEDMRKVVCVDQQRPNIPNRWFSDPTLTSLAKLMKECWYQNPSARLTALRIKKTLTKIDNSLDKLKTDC
MST4 (human), sequence (Q9P289 whole entry, looked up): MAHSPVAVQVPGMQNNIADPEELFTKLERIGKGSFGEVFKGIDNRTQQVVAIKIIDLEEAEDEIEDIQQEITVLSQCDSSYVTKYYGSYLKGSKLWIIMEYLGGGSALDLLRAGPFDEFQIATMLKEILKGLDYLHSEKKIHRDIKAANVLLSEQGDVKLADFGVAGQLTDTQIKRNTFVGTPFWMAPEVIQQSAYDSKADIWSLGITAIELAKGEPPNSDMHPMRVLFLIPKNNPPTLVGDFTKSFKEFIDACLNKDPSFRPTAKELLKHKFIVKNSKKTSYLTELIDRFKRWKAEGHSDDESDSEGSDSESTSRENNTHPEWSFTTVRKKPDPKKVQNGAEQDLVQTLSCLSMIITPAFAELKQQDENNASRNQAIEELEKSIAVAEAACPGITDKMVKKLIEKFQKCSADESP
DAPK1 (human), sequence (P53355 whole entry, looked up): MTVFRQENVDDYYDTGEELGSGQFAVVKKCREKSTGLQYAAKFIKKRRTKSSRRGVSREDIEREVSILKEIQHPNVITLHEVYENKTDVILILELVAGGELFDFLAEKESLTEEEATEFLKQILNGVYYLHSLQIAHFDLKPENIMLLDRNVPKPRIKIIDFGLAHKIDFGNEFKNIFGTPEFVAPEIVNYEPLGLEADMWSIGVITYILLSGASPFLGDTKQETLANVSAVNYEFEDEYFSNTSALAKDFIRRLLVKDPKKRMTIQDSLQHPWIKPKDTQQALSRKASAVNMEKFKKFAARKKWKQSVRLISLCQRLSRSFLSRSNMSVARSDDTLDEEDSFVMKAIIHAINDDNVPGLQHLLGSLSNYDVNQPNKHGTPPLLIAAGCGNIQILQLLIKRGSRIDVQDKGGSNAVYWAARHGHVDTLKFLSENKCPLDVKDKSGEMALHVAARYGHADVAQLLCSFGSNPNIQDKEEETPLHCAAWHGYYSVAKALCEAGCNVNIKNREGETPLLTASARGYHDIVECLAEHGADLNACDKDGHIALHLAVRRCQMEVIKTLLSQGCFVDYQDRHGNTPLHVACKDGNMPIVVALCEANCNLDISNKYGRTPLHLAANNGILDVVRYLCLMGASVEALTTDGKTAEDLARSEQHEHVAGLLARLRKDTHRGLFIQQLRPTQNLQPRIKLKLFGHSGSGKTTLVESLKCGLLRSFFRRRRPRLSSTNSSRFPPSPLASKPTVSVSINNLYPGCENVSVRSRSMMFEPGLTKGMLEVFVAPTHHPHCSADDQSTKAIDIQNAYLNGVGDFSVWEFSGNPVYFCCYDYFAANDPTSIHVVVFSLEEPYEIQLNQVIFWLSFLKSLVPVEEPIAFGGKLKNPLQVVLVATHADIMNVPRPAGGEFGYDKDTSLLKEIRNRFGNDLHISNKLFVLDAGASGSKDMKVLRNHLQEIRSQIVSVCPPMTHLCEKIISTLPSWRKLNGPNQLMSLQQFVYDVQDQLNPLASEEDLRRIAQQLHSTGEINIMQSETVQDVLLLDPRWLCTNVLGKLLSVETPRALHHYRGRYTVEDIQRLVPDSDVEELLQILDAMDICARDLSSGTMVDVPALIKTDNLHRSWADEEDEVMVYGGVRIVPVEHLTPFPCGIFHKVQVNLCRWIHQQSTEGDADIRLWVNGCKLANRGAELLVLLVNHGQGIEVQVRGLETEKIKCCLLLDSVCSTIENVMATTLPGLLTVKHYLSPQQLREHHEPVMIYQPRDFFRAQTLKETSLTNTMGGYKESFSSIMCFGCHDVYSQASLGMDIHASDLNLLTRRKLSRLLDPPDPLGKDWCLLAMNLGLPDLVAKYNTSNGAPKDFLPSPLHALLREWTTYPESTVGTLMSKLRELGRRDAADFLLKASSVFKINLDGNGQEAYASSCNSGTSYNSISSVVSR
PRKCB1 (human), sequence (P05771 whole entry, looked up): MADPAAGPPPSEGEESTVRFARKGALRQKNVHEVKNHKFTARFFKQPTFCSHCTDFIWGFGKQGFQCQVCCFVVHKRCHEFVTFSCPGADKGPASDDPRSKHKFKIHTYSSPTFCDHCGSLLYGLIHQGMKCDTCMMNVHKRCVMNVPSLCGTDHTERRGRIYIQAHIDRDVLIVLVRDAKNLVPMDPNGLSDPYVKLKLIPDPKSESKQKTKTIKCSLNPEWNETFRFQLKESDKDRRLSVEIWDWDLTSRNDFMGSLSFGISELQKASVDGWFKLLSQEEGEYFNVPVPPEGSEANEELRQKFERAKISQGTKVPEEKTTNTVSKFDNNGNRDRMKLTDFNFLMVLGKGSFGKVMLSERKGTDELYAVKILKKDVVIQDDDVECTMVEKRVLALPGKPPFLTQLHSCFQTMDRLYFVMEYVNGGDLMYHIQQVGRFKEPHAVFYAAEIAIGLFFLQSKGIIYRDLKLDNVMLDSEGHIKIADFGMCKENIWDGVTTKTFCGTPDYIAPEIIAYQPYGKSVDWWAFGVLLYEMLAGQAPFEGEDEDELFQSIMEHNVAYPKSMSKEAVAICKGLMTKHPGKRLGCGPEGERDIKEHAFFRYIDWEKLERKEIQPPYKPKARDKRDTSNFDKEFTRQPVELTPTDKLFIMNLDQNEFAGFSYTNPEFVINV
IKBKB (human), sequence (O14920 whole entry, looked up): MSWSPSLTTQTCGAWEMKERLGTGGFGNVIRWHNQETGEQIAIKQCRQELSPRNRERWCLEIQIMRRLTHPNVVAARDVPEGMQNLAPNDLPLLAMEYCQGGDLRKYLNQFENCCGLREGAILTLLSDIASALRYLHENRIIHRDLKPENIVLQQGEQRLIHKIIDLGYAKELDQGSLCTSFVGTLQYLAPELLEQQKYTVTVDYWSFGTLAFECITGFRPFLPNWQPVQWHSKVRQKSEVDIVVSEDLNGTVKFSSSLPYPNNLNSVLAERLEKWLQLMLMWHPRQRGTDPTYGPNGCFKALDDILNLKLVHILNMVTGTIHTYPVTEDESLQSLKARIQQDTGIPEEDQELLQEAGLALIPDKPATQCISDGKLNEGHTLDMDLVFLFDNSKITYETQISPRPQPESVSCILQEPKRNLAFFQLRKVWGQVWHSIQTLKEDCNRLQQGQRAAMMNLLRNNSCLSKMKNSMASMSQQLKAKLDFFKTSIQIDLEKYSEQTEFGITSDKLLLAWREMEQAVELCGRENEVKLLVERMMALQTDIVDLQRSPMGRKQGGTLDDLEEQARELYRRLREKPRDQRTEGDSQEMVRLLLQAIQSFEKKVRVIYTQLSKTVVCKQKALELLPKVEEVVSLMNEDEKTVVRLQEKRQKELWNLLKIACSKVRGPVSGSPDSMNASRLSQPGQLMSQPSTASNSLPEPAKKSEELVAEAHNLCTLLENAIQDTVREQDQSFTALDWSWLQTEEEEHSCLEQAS
GSK3B (human), sequence (P49841 whole entry, looked up): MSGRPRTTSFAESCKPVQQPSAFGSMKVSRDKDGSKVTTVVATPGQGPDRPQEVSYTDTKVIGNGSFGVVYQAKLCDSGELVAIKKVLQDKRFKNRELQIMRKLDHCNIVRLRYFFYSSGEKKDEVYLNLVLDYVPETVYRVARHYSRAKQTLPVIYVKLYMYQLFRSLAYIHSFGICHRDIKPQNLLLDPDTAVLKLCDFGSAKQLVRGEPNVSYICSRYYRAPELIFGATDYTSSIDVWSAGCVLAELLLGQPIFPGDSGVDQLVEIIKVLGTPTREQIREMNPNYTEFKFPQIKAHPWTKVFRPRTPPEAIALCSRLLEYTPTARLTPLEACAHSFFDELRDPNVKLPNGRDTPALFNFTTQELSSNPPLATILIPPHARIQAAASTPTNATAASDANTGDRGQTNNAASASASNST
IKBKE (human), sequence (Q14164 whole entry, looked up): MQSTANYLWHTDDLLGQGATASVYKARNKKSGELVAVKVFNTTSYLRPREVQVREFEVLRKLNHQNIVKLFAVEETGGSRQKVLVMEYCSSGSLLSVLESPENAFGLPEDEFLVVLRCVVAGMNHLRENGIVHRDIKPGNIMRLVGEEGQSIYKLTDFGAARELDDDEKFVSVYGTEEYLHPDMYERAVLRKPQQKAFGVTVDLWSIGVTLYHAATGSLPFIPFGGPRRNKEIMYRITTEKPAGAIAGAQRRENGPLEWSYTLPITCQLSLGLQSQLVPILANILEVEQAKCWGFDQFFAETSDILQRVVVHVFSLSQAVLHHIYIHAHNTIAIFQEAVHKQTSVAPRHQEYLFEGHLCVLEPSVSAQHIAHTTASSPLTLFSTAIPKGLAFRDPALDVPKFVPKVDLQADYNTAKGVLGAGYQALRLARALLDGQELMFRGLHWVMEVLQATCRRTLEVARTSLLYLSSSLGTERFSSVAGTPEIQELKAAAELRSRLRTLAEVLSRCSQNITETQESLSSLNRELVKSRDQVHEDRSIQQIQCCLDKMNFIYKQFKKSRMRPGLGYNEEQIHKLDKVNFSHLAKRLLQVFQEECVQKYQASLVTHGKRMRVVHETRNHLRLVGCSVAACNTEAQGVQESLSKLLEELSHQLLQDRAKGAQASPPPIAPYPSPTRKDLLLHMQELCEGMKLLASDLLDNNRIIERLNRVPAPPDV

| SMILES | residual activity (ACVR1 (human)) | residual activity (ADRBK1 (human)) | residual activity (AURKC (human)) | residual activity (BMX (human)) | residual activity (CAMK1 (human)) | residual activity (CDK1 CCNB1 (human)) | residual activity (DAPK1 (human)) | residual activity (DDR2 (human)) | residual activity (DYRK2 (human)) | residual activity (EPHA5 (human)) | residual activity (EPHA7 (human)) | residual activity (FLT1 (human)) | residual activity (FLT3 (human)) | residual activity (GSK3A (human)) | residual activity (HIPK4 (human)) | residual activity (IKBKB (human)) | residual activity (IKBKE (human)) | residual activity (LRRK2 (human)) | residual activity (MAP3K10 (human)) | residual activity (MAPKAPK2 (human)) | other results |
| --- | --- | --- | --- | --- | --- | --- | --- | --- | --- | --- | --- | --- | --- | --- | --- | --- | --- | --- | --- | --- | --- |
| O=C1NC(=O)C(c2cn(CCCn3ccnc3)c3ccccc23)=C1Nc1ccccc1 | 94.4% | 97.1% | 89.8% | 90% | 106% | 84.9% | 99.2% | 95.6% | 97.3% | 96.1% | 89.5% | 85.7% | 8.21% | 10.6% | 90.7% | 110% | 87% | 43.6% | 34.5% | 102% | residual activity (ACVR1B (human)): 96.2%; residual activity (CSNK2A2 (human)): 87.6%; residual activity (FES (human)): 103%; residual activity (FYN (human)): 102%; residual activity (GSK3B (human)): 14.2%; residual activity (MAP3K3 (human)): 95.8%; residual activity (MST4 (human)): 22.2%; residual activity (MYLK2 (human)): 95.7%; residual activity (PAK4 (human)): 97.8%; residual activity (PHKG1 (human)): 64.6%; residual activity (PLK3 (human)): 99.8%; residual activity (PRKACG (human)): 117%; residual activity (PRKCB1 (human)): 9.78%; residual activity (ROCK1 (human)): 99.2%; residual activity (STK16 (human)): 110%; residual activity (STK33 (human)): 82.9%; residual activity (ULK3 (human)): 84.7%; residual activity (YES1 (human)): 89.3%; residual activity (ZAP70 (human)): 104% |
| Cc1ccc(Nc2nccc(N(C)c3ccc4c(C)n(C)nc4c3)n2)cc1S(N)(=O)=O | 104% | 90.3% | 70.9% | 93.4% | 87.4% | 99.6% | 105% | 36.2% | 98.8% | 99.7% | 94.1% | 27.2% | 40.7% | 101% | 109% | 86.9% | 87% | 109% | 28.5% | 99.6% | residual activity (ACVR1B (human)): 100%; residual activity (CSNK2A2 (human)): 99.8%; residual activity (MAP3K3 (human)): 112%; residual activity (MST4 (human)): 108%; residual activity (PAK4 (human)): 92%; residual activity (PHKG1 (human)): 92.5%; residual activity (PLK3 (human)): 101%; residual activity (PRKACG (human)): 111%; residual activity (PRKCB1 (human)): 91%; residual activity (PTK6 (human)): 66.2%; residual activity (ROCK1 (human)): 100%; residual activity (STK16 (human)): 43.8%; residual activity (STK33 (human)): 87.1%; residual activity (ULK3 (human)): 102%; residual activity (YES1 (human)): 52.6%; residual activity (ZAP70 (human)): 92.6% |
| Oc1cccc(-c2nc(N3CCOCC3)c3oc4ncccc4c3n2)c1 | 105% | 107% | 98.1% | 101% | 101% | 108% | 78% | 94.6% | 97.6% | 102% | 93.9% | 83.6% | 87.1% | 90.2% | 107% | 98.3% | 98.8% | 101% | 92% | 97.8% | residual activity (CSNK2A2 (human)): 56.2%; residual activity (FES (human)): 98.8%; residual activity (FYN (human)): 91.7%; residual activity (GSK3B (human)): 94.8%; residual activity (MST4 (human)): 98.6%; residual activity (MYLK2 (human)): 99%; residual activity (PAK4 (human)): 90.7%; residual activity (PHKG1 (human)): 93.3%; residual activity (PLK3 (human)): 94.6%; residual activity (PRKACG (human)): 101%; residual activity (PRKCB1 (human)): 97.8%; residual activity (PTK6 (human)): 80.8%; residual activity (ROCK1 (human)): 94.9%; residual activity (STK16 (human)): 91.7%; residual activity (ULK3 (human)): 99.7%; residual activity (YES1 (human)): 94.3%; residual activity (ZAP70 (human)): 91.4% |
| CCCC(=O)Oc1ccc2[nH]c(C(=O)c3cc4ccccc4[nH]3)cc2c1 | 100% | 101% | 94.9% | 97.4% | 98.8% | 106% | 85.8% | 89.9% | 91.8% | 97.7% | 97.2% | 89.7% | 79.9% | 94.1% | 86.3% | 98.7% | 91.4% | 101% | 87.7% | 92.4% | residual activity (ACVR1B (human)): 98.9%; residual activity (FES (human)): 97.8%; residual activity (FYN (human)): 102%; residual activity (GSK3B (human)): 94%; residual activity (MAP3K3 (human)): 91.9%; residual activity (MST4 (human)): 94.8%; residual activity (MYLK2 (human)): 98.2%; residual activity (PAK4 (human)): 87.4%; residual activity (PHKG1 (human)): 93.7%; residual activity (PLK3 (human)): 98.4%; residual activity (PRKACG (human)): 99.8%; residual activity (PRKCB1 (human)): 97.3%; residual activity (PTK6 (human)): 85.4%; residual activity (ROCK1 (human)): 105%; residual activity (STK16 (human)): 100%; residual activity (STK33 (human)): 92.9%; residual activity (ULK3 (human)): 89.5%; residual activity (YES1 (human)): 84.4%; residual activity (ZAP70 (human)): 100% |
| CNc1cc2c(Nc3cccc(Br)c3)ncnc2cn1 | 104% | 97% | 85.9% | 93.9% | 92.3% | 104% | 80.5% | 100% | 89.9% | 106% | 94.6% | 83.5% | 71.2% | 95.9% | 82.8% | 98.2% | 87.1% | 67% | 90.1% | 99.6% | residual activity (ACVR1B (human)): 97.7%; residual activity (FES (human)): 96.9%; residual activity (FYN (human)): 91.7%; residual activity (GSK3B (human)): 89.6%; residual activity (MAP3K3 (human)): 73.3%; residual activity (MST4 (human)): 109%; residual activity (MYLK2 (human)): 97.3%; residual activity (PAK4 (human)): 93%; residual activity (PHKG1 (human)): 91.4%; residual activity (PLK3 (human)): 96.4%; residual activity (PRKACG (human)): 115%; residual activity (PRKCB1 (human)): 95.3%; residual activity (PTK6 (human)): 54.4%; residual activity (ROCK1 (human)): 98.8%; residual activity (STK16 (human)): 98.6%; residual activity (STK33 (human)): 95.2%; residual activity (ULK3 (human)): 95.8%; residual activity (YES1 (human)): 74.7%; residual activity (ZAP70 (human)): 99.1% |
